Results from patent US8138170B2, “Immunosuppressive Ningalin compounds” (Memorial Sloan-Kettering Cancer Center, priority 2004, dated 2012).
“And” between values parts separate entries of the source, which are not always exact repeats. Identical values can stand only once. Like-named read-outs stand apart in the source and are kept apart here.

Experiments:
[1] = system: P388/DX leukemic cells; assay type: in vivo, B6D2F1 mice; conditions: for Log cell kill: calculated assuming doubling time 0.4 day
[2] = system: carrageenan-induced paw edema; experiment: Carrageenan-induced paw edema; assay type: in vivo, B6D2F1 mice; conditions: for Pedis Area: individual mice 1-4; for Pedis Area, Mean: mean of 4 mice
Description: Carrageene (1%, 30 μl) was injected i.m. into the pedis of B6D2F1 mice (4 mice/group) to induced edemic inflammation at 0 hours. N3, N5 (i.p. injection) or oral administration of aspirin 500 mg/kg, or topical application of hydrocortisone cream (1%) or Lidex cream (0.05%) to the pedis skins were given at −1, 6, 12 and 24 hours. The control mice received dimethylsulfoxide (the vehicle of ningalins). The pedis areas (in mm^2) were measured at 0, 3, 6, 12, 24, 36 and 48 hours.

[3] = Cytotoxicity measured by cell proliferation inhibition; assay type: cell-based
[4] = system: human lymphocytes; experiment: Inhibition of PHA-stimulated lymphocyte proliferation ([3H]thymidine incorporation); assay type: cell-based; conditions: for IC50: read-out: Immunosuppressive Effect (IC50 in μM) [B]
[5] = system: C57BL/6 heart allografts; experiment: Heterotopic heart transplantation in mice; assay type: in vivo, Balb/c mice
Description: Heterotopic heart transplantation was performed in rats and mice. In brief, heart transplantation was performed by previously described modified method. Hearts harvested from donors were perfused with chilled saline and immediately transplanted to recipients under full anesthesia. Suture 10-0 in rats and 12-0 in mice (Ethicon; Somerville, N.J.) was used to perform anastomosis of aorta to aorta and pulmonary artery to vena cava. Heartbeat was evaluated daily and the day of complete cessation was considered rejection. Animals that died within three days after transplantation were excluded from the analysis (less than 5%).
Mice were also transplanted with heart allografts. In particular, untreated Balb/c (H-2^d) recipients rejected C57BL/6 (H-2^b) heart allografts at a MST of 7.8±0.84 days (n=5). Treatment with 40 mg/kg N5, QDx7, extended heart allograft survival to 13.33±2.52 days, which increased life span 71% (n=3; p<0.03).
Mice heart allografts were treated with 20 mg/kg of N3, QDx7, i.p. In particular, untreated Balb/c (H-2^d) recipients rejected C57BL/6 ([…]) heart allografts at a MST of […] days (n=5). Treatment with 20 mg/kg of N3 (i.e., one-half of dose of N5) extended heart allograft survival to 18.75±3.86 days (n=4; p<0.0005), an increase in lifespan of 140%.

[6] = system: P388/DX leukemic cells resistant to Adriamycin; conditions: for Log cell kill: calculated assuming doubling time 0.4 day
[7] = N3 20 mg/kg ip and/or Taxol 5.0 mg/kg iv, QD × 3
[8] = Taxol 10.0 mg/kg iv alone or with N3 20 mg/kg ip, QD × 3
[9] = 0 hr, aspirin 500 mg/kg oral, N3 100 mg/kg i.p., N5 50 mg/kg i.p., hydrocortisone cream 1%, Lidex cream 0.05% topical, given at −1, 6, 12, 24 hours
[10] = PHA-stimulated human lymphocyte proliferation
[11] = N3 20 mg/kg ip and/or Adriamycin 1.5 mg/kg iv, QD × 3
[12] = Adriamycin 3.0 mg/kg iv alone or with N3 20 mg/kg ip, QD × 3

| SMILES | Lifespan increase (%) [1, 7] | Median survival time (days ± SD) [1, 7] | Pedis Area [2, 9] | Pedis Area, Mean ([2]; 0 hr, doses as E35) | Pedis Area ([2]; 3 hr, doses as E35) | Pedis Area, Mean ([2]; 3 hr, doses as E35) | Pedis Area ([2]; 6 hr, doses as E35) | Pedis Area, Mean ([2]; 6 hr, doses as E35) | Pedis Area ([2]; 12 hr, doses as E35) | Pedis Area, Mean ([2]; 12 hr, doses as E35) | Pedis Area ([2]; 24 hr, doses as E35) | Pedis Area, Mean ([2]; 24 hr, doses as E35) | Pedis Area ([2]; 36 hr, doses as E35) | Pedis Area, Mean ([2]; 36 hr, doses as E35) | Pedis Area ([2]; 48 hr, doses as E35) | Pedis Area, Mean ([2]; 48 hr, doses as E35) | IC50 [3] | IC50 [4, 10] | Lifespan increase (%) [6, 11] | Median survival time (days ± SD) [6, 11] | also measured |
| --- | --- | --- | --- | --- | --- | --- | --- | --- | --- | --- | --- | --- | --- | --- | --- | --- | --- | --- | --- | --- | --- |
| CC(=O)O[C@H]1C(=O)[C@@]2(C)[C@H]([C@H](OC(=O)c3ccccc3)[C@]3(O)C[C@H](OC(=O)[C@H](O)[C@@H](NC(=O)c4ccccc4)c4ccccc4)C(C)=C1C3(C)C)[C@]1(OC(C)=O)CO[C@@H]1C[C@@H]2O [Taxol, paclitaxel] | +4% | 9.56 ± 0.62 days |  |  |  |  |  |  |  |  |  |  |  |  |  |  |  |  |  |  | Lifespan increase (days) [1, 7]: +0.37 days; Log cell kill ([1]; Taxol 5.0 mg/kg iv alone or with N3 20 mg/kg ip): 0.28; Lifespan increase (%) [1, 8]: +4%; Lifespan increase (days) [1, 8]: +0.37 days; Median survival time (days ± SD) [1, 8]: 9.56 ± 0.88 days; Log cell kill ([1]; Taxol 10.0 mg/kg iv alone or with N3 20 mg/kg ip): 0.28 |
| CC(=O)Oc1ccccc1C(=O)O [Aspirin, aspirin, reference compound] |  |  | 100 mm^2 | 100 mm^2 | 142.2 mm^2 and 130.5 mm^2 and 122 mm^2 and 134.5 mm^2 | 132.3 mm^2 | 151.4 mm^2 and 139.8 mm^2 and 124.6 mm^2 and 149.6 mm^2 | 141.4 mm^2 | 138.5 mm^2 and 135.6 mm^2 and 120.3 mm^2 and 138.9 mm^2 | 133.3 mm^2 | 116.5 mm^2 and 116.9 mm^2 and 108.5 mm^2 and 118.6 mm^2 | 115.1 mm^2 | 114.7 mm^2 and 107.6 mm^2 and 94.1 mm^2 and 109.7 mm^2 | 106.5 mm^2 | 118.3 mm^2 and 105.9 mm^2 and 92.4 mm^2 and 111.5 mm^2 | 107 mm^2 |  |  |  |  |  |
| COC(=O)c1c(-c2cc(OC)c(OC)c(OC)c2)c(-c2cc(OC)c(OC)c(OC)c2)c(C(=O)OC)n1CCc1ccc(OC)cc1 [Ningalin N6, 1-[2-(4-Methoxy-phenyl)-ethyl]-3,4-bis-(3,4,5-trimethoxy-phenyl)-1H-pyrrole-2,5-dicarboxylic acid dimethyl ester] |  |  |  |  |  |  |  |  |  |  |  |  |  |  |  |  | 70.2 ± 20.5 µM | 1.61 ± 0.31 µM |  |  | Selectivity Ratio [A]/[B] ([4]; cytotoxicity IC50 / immunosuppressive IC50): 43.6 |
| COc1ccc(CCn2cc(-c3ccc(OC)c(OC)c3)c3c4cc(OC)c(OC)cc4oc(=O)c32)cc1OC [Ningalin N3, 1-(3,4-Dimethoxy-phenyl)-3-[2-(3,4-dimethoxy-phenyl)-ethyl]-7,8-dimethoxy-3H-5-oxa-3-aza-cyclopenta[α]naphthalen-4-one] | −13% | 8.00 ± 0.54 days | 100 mm^2 | 100 mm^2 | 134.4 mm^2 and 142.7 mm^2 and 141.7 mm^2 and 139.5 mm^2 | 139.6 mm^2 | 140.6 mm^2 and 159.2 mm^2 and 153.4 mm^2 and 151.8 mm^2 | 151.3 mm^2 | 140.6 mm^2 and 150.5 mm^2 and 139.8 mm^2 and 135.1 mm^2 | 141.5 mm^2 | 134.4 mm^2 and 142.7 mm^2 and 136.9 mm^2 and 128.1 mm^2 | 135.5 mm^2 | 131.1 mm^2 and 136.9 mm^2 and 121.9 mm^2 and 127.9 mm^2 | 129.5 mm^2 | 131.1 mm^2 and 136.9 mm^2 and 115.8 mm^2 and 126 mm^2 | 127.5 mm^2 | 51.3 ± 18 µM | 0.51 ± 0.19 µM | −12% | 9.25 ± 0.66 days | MST ± SD days (heart allograft survival) ([5]; B6 heart to Balb/c, N3 20 mg/kg QDx7 i.p., 20 mg/kg): 18.75±3.86 days; increase in lifespan ([5]; heart allograft, N3 20 mg/kg QDx7 i.p., vs untreated): 140%; Survival days (individual animals) ([5]; heart, N3 20 mg/kg, 20 mg/kg): 19 days and 24 days and 15 days and 17 days; lifespan of tumor bearing mice compared to saline treated controls ([1]; N3 20 mg/kg i.p. daily for three days): decreased the lifespan; Lifespan increase [1, 7]: -1.19 days; anti-inflammatory effect (FIG. 3) ([2]; N5 50 mg/kg i.p., N3 100 mg/kg i.p., all drugs: at 12-48 hours): produced an anti-inflammatory effect; Lifespan increase [6, 11]: -1.25 days; decreased the lifespan ([6]; N3 alone 20 mg/kg i.p. daily for three days, vs control): 12% |
| COc1ccc(CCN(C)CCCC(C#N)(c2ccc(OC)c(OC)c2)C(C)C)cc1OC (centres unmarked) [Verapamil, reference compound] |  |  |  |  |  |  |  |  |  |  |  |  |  |  |  |  |  |  |  |  | IC50 ([4]; Homo sapiens, Lymphocyte): 6.9 ± 1.01 µM |
| COc1cccc2c1C(=O)c1c(O)c3c(c(O)c1C2=O)C[C@@](O)(C(=O)CO)C[C@@H]3O[C@H]1C[C@H](N)[C@H](O)[C@H](C)O1 [Adriamycin, Doxorubicin] |  |  |  |  |  |  |  |  |  |  |  |  |  |  |  |  |  |  | +7% | 11.25 ± 1.75 days | Log cell kill ([6]; Adriamycin 1.5 mg/kg iv alone or with N3 20 mg/kg ip): 0.56; Lifespan increase (%) [6, 12]: +15%; Lifespan increase (days) [6, 12]: +1.58 days; Median survival time (days ± SD) [6, 12]: 12.08 ± 1.81 days; Log cell kill ([6]; Adriamycin 3.0 mg/kg iv alone or with N3 20 mg/kg ip): 1.19; Lifespan increase (days) [6, 11]: +0.75 days |
